Assay results reported in article PMC7358525, “Characterization of PF-6142, a Novel, Non-Catecholamine Dopamine Receptor D1 Agonist, in Murine and Nonhuman Primate Models of Dopaminergic Activation” (Frontiers in Pharmacology, 2020).

Columns and labels:
Format in all cases: in vivo
[1] = system: time spent awake, in SWS and REM sleep; test: Rat polysomnography; conditions: 5.6 mg/kg s.c., first 4 h
Excerpt: (§1) Model 4ET telemetry device components (Data Sciences International, St Paul, MN, USA) were bilaterally placed in subcutaneous pockets on the dorsal flank of adult male Sprague-Dawley rats (200–400 grams). Two pairs of leads were implanted superficially to burr holes drilled over the frontal cortex (stainless steel screws, Plastics One, Roanoke, VA at coordinates: A-P = +1.5 mm, M-L = 1.5 mm) and parietal cortex (coordinates: A-P = −3.7 mm, M-L = −2.2 mm), and the cerebellum bilaterally to be used as ground and reference for electroencephalographic (EEG) recordings. A stainless-steel wire (Plastics One, Roanoke, VA) was implanted into the neck muscle to monitor electromyogram (EMG). All recordings were performed inside the home cages of animals using RPC-2 telemetry receivers (Data Sciences International, St. Paul, MN) at a sampling rate of 500 Hz for data acquisition. Baseline data, while on vehicle, were obtained for 24 h prior to compound administration. PF-6142 (1.0 or 5.6 mg/kg, s.c.) was administered acutely following the baseline day.
(§2) Raw EEG traces were analyzed using custom scripts in MATLAB (The Mathworks, Natick, MA, version 7.8 (R2009a)) to evaluate spectral changes between treatment groups. Raw EEG data were read into the MATLAB software, segmented to match that of the polysomnography (PSG) data (see below) and fast Fourier transforms (FFTs) were performed. Only data collected on the parietal lead were the subject of statistical analyses. PSG analysis was applied to all EEG/EMG data and utilized an in-house algorithm developed in LabView (National Instruments, Austin TX) as previously described ([Harvey et al., 2013]).
Relative power data in each band aggregated over 2 h-long time bins, while on drug, were normalized to baseline levels in corresponding time bins relative to dosing. For statistical analysis the R software was used. The effects of two within factors, dose and time, on cumulative time spent in three stages, awake, REM, and NREM sleep were assessed using generalized linear mixed model. […]

[2] = Plasma exposure (PK), rat; conditions: 10 mg/kg SC, 1.5 h
Procedure: Across the set of experiments, PK was either collected from satellite animals or in separate, dedicated studies. In addition to plasma PK, exposures were obtained in brain tissue for rat and mouse, and plasma protein binding and brain tissue binding were measured. Using the measured exposures, partitioning, and binding parameters, and the […]

[3] = system: prepulse inhibition of startle; test: Mouse prepulse inhibition (PPI) and acoustic startle
Procedure: Drug and behaviorally naïve adult male C57BL/6J mice (9–11 weeks of age; n=8 per dose group) were used for PPI experiments. Subjects were tested individually in SR-Lab acoustic startle chambers (San Diego Instruments, San Diego CA, USA) equipped with a restrainer mounted atop a piezoelectric accelerometer which measured transduced movement in response to the presentation of audio stimuli presented through a speaker mounted 20 cm above the animal. Subjects were acclimated to an anteroom adjacent to the testing room at minimum 60 min prior to testing. Test sessions began with a 5 min acclimation period to background noise (65 dB) followed by presentation of six randomized repetitions of the 120 dB startle stimulus (40 ms duration) presented alone or paired in combination with a pre-pulse stimulus of 68, 72, or 74 db (20 msec in duration) presented 80 msec prior to the 120 dB startle stimulus, which was equivalent to +3, +7, and +9 db over background noise, respectively. Data were also recorded for no stimulus values to evaluate background level of response. The inter-trial interval between stimulus presentations was randomized and ranged from 10 to 20 s. Test compounds were administered 30 min (s.c.) prior to testing. […] Percent PPI was calculated for each individual subject as the relative change in the 120 dB startle response in the presence of each prepulse intensity using the formula: 100-((prepulse-pulse)/pulse)*100 as previously described ([Ralph-Williams et al., 2003]).
The experiment was analyzed using a two-way mixed model ANOVA (lme4 library in R software). The model included prepulse stimulus intensity levels, treatment (as all combinations of pre-treatment and treatment), and their interaction as fixed factors and random intercept, random slope for each animal as random factors. […] In order to adjust for multiple hypothesis testing we used false discover rate method which controls the expected proportion of false discoveries among the rejected hypotheses. For all statistical tests, p < 0.05 between groups was considered significant.

mouse locomotor activity = test: Mouse locomotor activity (LMA)
Procedure: Locomotor activity data were measured by an automated infrared photo-beam system in sound attenuating chambers controlled by Versamax® software, provided by Accuscan Instruments Inc. (Columbus, Ohio), which quantified beam breaks similar to the methods used previously ([Xu et al., 2000]). To test D1 receptor selectivity in a pharmacologic model, C57BL/6J mice were habituated to the apparatus for 90 min, followed by pretreatment with vehicle or SCH-23390 (0.01, 0.032, 0.1 0.32, s.c.) and returned to the apparatus for 30 min. […] Data were compared against the vehicle group using a repeated measures one-way ANOVA with a Dunnett’s post-test. To test D1 receptor selectivity in a genetic model, DRD1a WT and knockout mice (D1 KO) were habituated to the apparatus for 90 min, pretreated with vehicle or SCH-23390 (0.032 mg/kg, s.c.) and returned to the apparatus for 30 min. […] Data were compared within genotype using a two-way ANOVA with a Dunnett’s post-hoc test versus vehicle treated group.

EEG oscillation power = test: Rat quantitative electroencephalography, freely moving; conditions: first 4 h
Excerpt: as §1, §2
Relative power data in each band aggregated over 2 h-long time bins, while on drug, were normalized to baseline levels in corresponding time bins relative to dosing. For statistical analysis the R software was used. The effects of two within factors, dose and time, on cumulative time spent in three stages, awake, REM, and NREM sleep were assessed using generalized linear mixed model. The model specification explicitly accounted for a crossover design with repeated measures by introducing auxiliary factors, day, treatment sequence, and day by time product. To account for correlations within subjects, we employed a first order autoregressive scheme, which assumes that correlations decay exponentially with the lag between the measurements. The model was fitted using the method of restricted maximum likelihood. Significant findings were followed by least significant difference tests for pairwise differences across doses and across doses at fixed times for treatment and treatment by time factors, respectively. Tukey-Kramer procedure was used to adjust for multiple hypothesis testing. For all statistical tests, p < 0.05 was considered significant. The same fixed factors and type of statistical model were used to explain cumulative power within EEG power bands; the power was log transformed before the analysis.

[4] = significant only at 5.6 mg/kg s.c.

Cc1cc(Oc2nccc3occc23)ccc1-c1c(C)ncc2nccn12 [PF-6142]
decrease of time spent in slow-wave sleep relative to vehicle [1]: 88.1% | difference in fraction of REM sleep, vehicle vs high dose group [1]: 88.2% | increase of time spent awake [1]: 246.9% | PF-6142 plasma concentration [2]: 1260 ng/mL | effect on %PPI in combination with risperidone ([3]; PF-6142 1.78 mg/kg + risperidone, 3, 7, 9 dB prepulse): no effect | %PPI vs vehicle ([3]; PF-6142 1.78 mg/kg alone, significant only at 9 dB prepulse intensity (p=0.029)): modest impairments in %PPI | % PPI, PF-6142 alone (pilot experiments, Figure 4C) ([3]; adult C57BL/6J mice): modest non-significant reductions in % PPI | effect on risperidone (0.56 mg/kg)-reduced startle responses ([3]; in the presence of PF-6142): not altered | horizontal activity, five consecutive days of dosing (mouse locomotor activity; 1.78 mg/kg daily): did not significantly increase horizontal activity | horizontal activity, five consecutive days of dosing (mouse locomotor activity; 3.2 mg/kg s.c. daily (p=0.0311 day 4, p=0.0309 day 5)): only increased activity significantly on days 4 and 5 | locomotor activity, five consecutive days of dosing (mouse locomotor activity; 10 mg/kg s.c. daily, CD-1 mice): increased locomotor activity | locomotor activity (mouse locomotor activity; D1 KO mice, 10 mg/kg s.c. (p=0.6731)): did not show hyperactivity | locomotor activity (mouse locomotor activity; WT mice, 10 mg/kg s.c.): increased activity in the WT mice | horizontal activity (beam breaks, 2 h) (mouse locomotor activity; acute 0.32-10 mg/kg s.c., significant at 10 mg/kg (p<0.0001)): dose-dependently increased horizontal activity | delta oscillation power vs vehicle (EEG oscillation power; 5.6 mg/kg s.c.): significant delta power decrease | power in other studied frequency bands (theta, alpha) (EEG oscillation power; 1.0 and 5.6 mg/kg s.c.): not found to change significantly | beta oscillation power (EEG oscillation power; [4]): significant increase | gamma oscillation power (EEG oscillation power; [4]): significant increase | total power in the EEG signal (EEG oscillation power; [4]): decreased significantly
